From ChEMBL document CHEMBL3414487, “Synthesis and biological activity of salinomycin conjugates with floxuridine” (Eur J Med Chem, 2015)
Converted amounts (≈) assume the structure as drawn.

Columns and labels:
[1] = Antiproliferative activity against human HL60 cells assessed as growth inhibition after 72 hrs by MTT assay; assay type: functional, cell-based; conditions: HL-60, 72 h
[2] = tested on: Staphylococcus epidermidis; assay: Antimicrobial activity against methicillin-resistant Staphylococcus epidermidis 466/11 after 18 hrs by two-fold serial microdilution method; assay type: functional; conditions: 466/11, 18 h
[3] = Antiproliferative activity against human vincristine-resistant HL60/Vinc cells assessed as growth inhibition after 72 hrs by MTT assay; assay type: functional; conditions: Homo sapiens, HL60/vinc, 72 h
[4] = tested on: Staphylococcus epidermidis; assay: Antimicrobial activity against Staphylococcus epidermidis ATCC 12228 after 18 hrs by two-fold serial microdilution method; assay type: functional; conditions: ATCC 12228, 18 h
Staphylococcus aureus [5] = assay: Antimicrobial activity against Staphylococcus aureus […] 4163 after 18 hrs by two-fold serial microdilution method; assay type: functional
Staphylococcus aureus [6] = assay: Antimicrobial activity against Staphylococcus aureus ATCC 6538 after 18 hrs by two-fold serial microdilution method; assay type: functional; conditions: ATCC 6538, 18 h
[7] = tested on: Staphylococcus epidermidis; assay: Antimicrobial activity against methicillin-resistant Staphylococcus epidermidis 489/11 after 18 hrs by two-fold serial microdilution method; assay type: functional; conditions: 489/11, 18 h
Staphylococcus aureus [8] = assay: Antimicrobial activity against methicillin-resistant Staphylococcus aureus 573/12 after 18 hrs by two-fold serial microdilution method; assay type: functional; conditions: 573/12, 18 h
HL-60 [9] = assay: Selectivity index, ratio of IC50 for mouse BALB/3T3 cells to IC50 for human HL60 cells; assay type: functional
[10] = tested on: Staphylococcus epidermidis; assay: Antimicrobial activity against methicillin-resistant Staphylococcus epidermidis 488/11 after 18 hrs by two-fold serial microdilution method; assay type: functional; conditions: 488/11, 18 h
LoVo [11] = assay: Antiproliferative activity against human LoVo cells assessed as growth inhibition after 72 hrs by SRB method; assay type: functional, cell-based; conditions: Homo sapiens, LoVo, 72 h
Staphylococcus aureus [12] = assay: Antimicrobial activity against methicillin-resistant Staphylococcus aureus 522/12 after 18 hrs by two-fold serial microdilution method; assay type: functional; conditions: 522/12, 18 h
[13] = Antiproliferative activity against human doxorubicin-resistant LoVo/DX cells assessed as growth inhibition after 72 hrs by SRB method; assay type: functional, cell-based
Staphylococcus aureus [14] = assay: Antimicrobial activity against Staphylococcus aureus ATCC 25923 after 18 hrs by two-fold serial microdilution method; assay type: functional; conditions: ATCC 25923, 18 h
[15] = Selectivity index, ratio of IC50 for mouse BALB/3T3 cells to IC50 for human HL60/Vinc cells; assay type: functional
Staphylococcus aureus [16] = assay: Antimicrobial activity against methicillin-resistant Staphylococcus aureus 456/11 after 18 hrs by two-fold serial microdilution method; assay type: functional; conditions: 456/11, 18 h
[17] = Antiproliferative activity against human LS180 cells assessed as growth inhibition after 72 hrs by SRB method; assay type: functional, cell-based; conditions: Homo sapiens, LS180, 72 h
LoVo [18] = assay: Selectivity index, ratio of IC50 for mouse BALB/3T3 cells to IC50 for human LoVo cells; assay type: functional
LoVo [19] = assay: Resistance index, ratio of IC50 for human LoVo/DX cells to IC50 for human LoVo cells
[20] = tested on: Staphylococcus epidermidis; assay: Antimicrobial activity against methicillin-resistant Staphylococcus epidermidis 459/11 after 18 hrs by two-fold serial microdilution method; assay type: functional; conditions: 459/11, 18 h
[21] = Selectivity index, ratio of IC50 for mouse BALB/3T3 cells to IC50 for human LS180 cells; assay type: functional
[22] = tested on: Staphylococcus epidermidis; assay: Antimicrobial activity against methicillin-resistant Staphylococcus epidermidis 469/11 after 18 hrs by two-fold serial microdilution method; assay type: functional; conditions: 469/11, 18 h
Staphylococcus aureus [23] = assay: Antimicrobial activity against methicillin-resistant Staphylococcus aureus 462/11 after 18 hrs by two-fold serial microdilution method; assay type: functional; conditions: 462/11, 18 h
[24] = Selectivity index, ratio of IC50 for mouse BALB/3T3 cells to IC50 for human SW707 cells; assay type: functional
BALB/3T3 = assay: Antiproliferative activity against mouse BALB/3T3 cells assessed as growth inhibition after 72 hrs by SRB method; assay type: cell-based; conditions: BALB/3T3, 72 h
[25] = Selectivity index, ratio of IC50 for mouse BALB/3T3 cells to IC50 for human LoVo/DX cells; assay type: functional
Staphylococcus aureus [26] = assay: Antimicrobial activity against methicillin-resistant Staphylococcus aureus 572/12 after 18 hrs by two-fold serial microdilution method; assay type: functional; conditions: 572/12, 18 h
[27] = tested on: Staphylococcus epidermidis; assay: Antimicrobial activity against methicillin-resistant Staphylococcus epidermidis 468/11 after 18 hrs by two-fold serial microdilution method; assay type: functional; conditions: 468/11, 18 h
Staphylococcus aureus [28] = assay: Antimicrobial activity against methicillin-resistant Staphylococcus aureus 514/11 after 18 hrs by two-fold serial microdilution method; assay type: functional; conditions: 514/11, 18 h
[29] = tested on: Staphylococcus epidermidis; assay: Antimicrobial activity against Staphylococcus epidermidis ATCC 35984 after 18 hrs by two-fold serial microdilution method; assay type: functional; conditions: ATCC 35984, 18 h
[30] = tested on: Staphylococcus epidermidis; assay: Antimicrobial activity against methicillin-resistant Staphylococcus epidermidis 460/11 after 18 hrs by two-fold serial microdilution method; assay type: functional; conditions: 460/11, 18 h
Staphylococcus aureus [31] = assay: Antimicrobial activity against Staphylococcus aureus ATCC 29213 after 18 hrs by two-fold serial microdilution method; assay type: functional; conditions: ATCC 29213, 18 h
[32] = tested on: Staphylococcus epidermidis; assay: Antimicrobial activity against methicillin-resistant Staphylococcus epidermidis 467/11 after 18 hrs by two-fold serial microdilution method; assay type: functional; conditions: 467/11, 18 h
HT-29 [33] = assay: Antiproliferative activity against human HT-29 cells assessed as growth inhibition after 72 hrs by SRB method; assay type: functional, cell-based; conditions: Homo sapiens, HT-29, 72 h
Staphylococcus aureus [34] = assay: Antimicrobial activity against methicillin-resistant Staphylococcus aureus 586/12 after 18 hrs by two-fold serial microdilution method; assay type: functional; conditions: 586/12, 18 h
Staphylococcus aureus [35] = assay: Antimicrobial activity against methicillin-resistant Staphylococcus aureus 537/12 after 18 hrs by two-fold serial microdilution method; assay type: functional; conditions: 537/12, 18 h
Staphylococcus aureus [36] = assay: Antimicrobial activity against methicillin-resistant Staphylococcus aureus 452/11 after 18 hrs by two-fold serial microdilution method; assay type: functional; conditions: 452/11, 18 h
HL-60 [37] = assay: Resistance index, ratio of IC50 for human HL60/Vinc cells to IC50 for human HL60 cells
Staphylococcus aureus [38] = assay: Antimicrobial activity against methicillin-resistant Staphylococcus aureus 585/12 after 18 hrs by two-fold serial microdilution method; assay type: functional; conditions: 585/12, 18 h
[39] = Antiproliferative activity against human SW707 cells assessed as growth inhibition after 72 hrs by SRB method; assay type: functional, cell-based; conditions: Homo sapiens, SW707, 72 h
[40] = tested on: Staphylococcus epidermidis; assay: Antimicrobial activity against methicillin-resistant Staphylococcus epidermidis 461/11 after 18 hrs by two-fold serial microdilution method; assay type: functional; conditions: 461/11, 18 h
[41] = tested on: Staphylococcus epidermidis; assay: Antimicrobial activity against methicillin-resistant Staphylococcus epidermidis 470/11 after 18 hrs by two-fold serial microdilution method; assay type: functional; conditions: 470/11, 18 h
HT-29 [42] = assay: Selectivity index, ratio of IC50 for mouse BALB/3T3 cells to IC50 for human HT-29 cells; assay type: functional

## O=c1[nH]cc(F)c(=O)[nH]1 [FLUOROURACIL]
[1]
  IC50: 22.5 µM
[2]
  MIC: 0.48 µM (≈ 0.0624 µg/mL)
[3]
  IC50: 21.2 µM
[4]
  MIC: 3.85 µM (≈ 0.501 µg/mL)
Staphylococcus aureus [5]
  MIC: 1.92 µM (≈ 0.25 µg/mL)
Staphylococcus aureus [6]
  MIC: 3.85 µM (≈ 0.501 µg/mL)
[7]
  MIC: 0.48 µM (≈ 0.0624 µg/mL)
Staphylococcus aureus [8]
  MIC: 3.85 µM (≈ 0.501 µg/mL)
HL-60 [9]
  Selectivity Index: 0.14
[10]
  MIC: 1.92 µM (≈ 0.25 µg/mL)
LoVo [11]
  IC50: 4.69 µM
Staphylococcus aureus [12]
  MIC: 7.69 µM (≈ 1 µg/mL)
[13]
  IC50: 6 µM
Staphylococcus aureus [14]
  MIC: 1.92 µM (≈ 0.25 µg/mL)
[15]
  Selectivity Index: 0.15
Staphylococcus aureus [16]
  MIC: 3.85 µM (≈ 0.501 µg/mL)
[17]
  IC50: 38.9 µM
LoVo [18]
  Selectivity Index: 0.69
LoVo [19]
  Ratio IC50: 1.28
[20]
  MIC: 3.85 µM (≈ 0.501 µg/mL)
[21]
  Selectivity Index: 0.08
[22]
  MIC: 1.92 µM (≈ 0.25 µg/mL)
Staphylococcus aureus [23]
  MIC: 7.69 µM (≈ 1 µg/mL)
[24]
  Selectivity Index: 0.16
BALB/3T3
  IC50: 3.23 µM
[25]
  Selectivity Index: 0.54
Staphylococcus aureus [26]
  MIC: 3.85 µM (≈ 0.501 µg/mL)
[27]
  MIC: 0.48 µM (≈ 0.0624 µg/mL)
Staphylococcus aureus [28]
  MIC: 3.85 µM (≈ 0.501 µg/mL)
[29]
  MIC: 1.92 µM (≈ 0.25 µg/mL)
[30]
  MIC: 1.92 µM (≈ 0.25 µg/mL)
Staphylococcus aureus [31]
  MIC: 3.85 µM (≈ 0.501 µg/mL)
[32]
  MIC: 0.48 µM (≈ 0.0624 µg/mL)
HT-29 [33]
  IC50: 25.1 µM
Staphylococcus aureus [34]
  MIC: 3.85 µM (≈ 0.501 µg/mL)
Staphylococcus aureus [35]
  MIC: 7.69 µM (≈ 1 µg/mL)
Staphylococcus aureus [36]
  MIC: 3.85 µM (≈ 0.501 µg/mL)
HL-60 [37]
  Ratio IC50: 0.94
Staphylococcus aureus [38]
  MIC: 3.85 µM (≈ 0.501 µg/mL)
[39]
  IC50: 20.5 µM
[40]
  MIC: 0.96 µM (≈ 0.125 µg/mL)
[41]
  MIC: 0.48 µM (≈ 0.0624 µg/mL)
HT-29 [42]
  Selectivity Index: 0.13

## CC[C@@H](C(=O)[C@@H](C)[C@@H](O)[C@H](C)[C@@H]1O[C@@H]([C@@H](CC)C(=O)O)CC[C@@H]1C)[C@H]1O[C@]2(C=C[C@@H](O)[C@]3(CC[C@@](C)([C@H]4CC[C@](O)(CC)[C@H](C)O4)O3)O2)[C@H](C)C[C@@H]1C [SALINOMYCIN]
[1]
  IC50: 0.29 µM
[2]
  MIC: 2.66 µM (≈ 2 µg/mL)
[3]
  IC50: 2.09 µM
[4]
  MIC: 2.66 µM (≈ 2 µg/mL)
Staphylococcus aureus [5]
  MIC: 2.66 µM (≈ 2 µg/mL)
Staphylococcus aureus [6]
  MIC: 2.66 µM (≈ 2 µg/mL)
[7]
  MIC: 2.66 µM (≈ 2 µg/mL)
Staphylococcus aureus [8]
  MIC: 1.33 µM (≈ 0.999 µg/mL)
HL-60 [9]
  Selectivity Index: 32.17
[10]
  MIC: 2.66 µM (≈ 2 µg/mL)
LoVo [11]
  IC50: 0.36 µM
Staphylococcus aureus [12]
  MIC: 2.66 µM (≈ 2 µg/mL)
[13]
  IC50: 0.76 µM
Staphylococcus aureus [14]
  MIC: 2.66 µM (≈ 2 µg/mL)
[15]
  Selectivity Index: 4.46
Staphylococcus aureus [16]
  MIC: 1.33 µM (≈ 0.999 µg/mL)
[17]
  IC50: 0.61 µM
LoVo [18]
  Selectivity Index: 25.92
LoVo [19]
  Ratio IC50: 2.11
[20]
  MIC: 2.66 µM (≈ 2 µg/mL)
[21]
  Selectivity Index: 15.3
[22]
  MIC: 2.66 µM (≈ 2 µg/mL)
Staphylococcus aureus [23]
  MIC: 2.66 µM (≈ 2 µg/mL)
[24]
  Selectivity Index: 5.39
BALB/3T3
  IC50: 9.33 µM
[25]
  Selectivity Index: 12.28
Staphylococcus aureus [26]
  MIC: 1.33 µM (≈ 0.999 µg/mL)
[27]
  MIC: 2.66 µM (≈ 2 µg/mL)
Staphylococcus aureus [28]
  MIC: 2.66 µM (≈ 2 µg/mL)
[29]
  MIC: 2.66 µM (≈ 2 µg/mL)
[30]
  MIC: 2.66 µM (≈ 2 µg/mL)
Staphylococcus aureus [31]
  MIC: 2.66 µM (≈ 2 µg/mL)
[32]
  MIC: 2.66 µM (≈ 2 µg/mL)
HT-29 [33]
  IC50: 1.03 µM
Staphylococcus aureus [34]
  MIC: 2.66 µM (≈ 2 µg/mL)
Staphylococcus aureus [35]
  MIC: 2.66 µM (≈ 2 µg/mL)
Staphylococcus aureus [36]
  MIC: 1.33 µM (≈ 0.999 µg/mL)
HL-60 [37]
  Ratio IC50: 7.21
Staphylococcus aureus [38]
  MIC: 2.66 µM (≈ 2 µg/mL)
[39]
  IC50: 1.73 µM
[40]
  MIC: 2.66 µM (≈ 2 µg/mL)
[41]
  MIC: 2.66 µM (≈ 2 µg/mL)
HT-29 [42]
  Selectivity Index: 9.06
